Molecules are shown by their SMILES.

The values that follow come from article PMC7002685, “Inhibition of vascular calcification by inositol phosphates derivatized with ethylene glycol oligomers” (Nature Communications, 2020).

Data set [1] deals with T1, Peptidase, CTSG (Cathepsin G) (Homo sapiens, UniProt P08311).
T1 construct: purchased Eurofins Panlabs Discovery Services Taiwan, Ltd
As to the kind of experiment: Off-target 112510. Type of data set: biochemical. Here is the method:
(§1) The potential off-target activity of 10 µM (OEG2)2-IP4 was assessed against a panel of 87 enzymes, receptors, or ion channels that are used in standard safety pharmacology screens.
(§2) 3.2. Off-target screening assay
(§3) The experiments were conducted by a contract research organization (Eurofins Panlabs Discovery Services Taiwan, Ltd.) and details on the respective assays can be retrieved via the catalog number provided in Supplementary Table 11 from the company’s webpage
(§4) (https://www.eurofinsdiscoveryservices.com/). […]
(§5) At sacrifice the left tibia of animals of the rat model with dietary adenine/high-phosphate-induced uremia and VC was collected, fixed with 70% v/v EtOH and embedded in methyl methacrylate. The trabecular bone compartment is known to be the most metabolic active i.e. actively re-structured bone compartment in CKD. Therefore, histomorphometric and micro-computed tomography (µCT) analysis of bone was performed on the trabecular compartment. Tibial sections were Goldner-stained for histomorphometric analysis of the proximal metaphysis using the AxioVision Release 4.5 software, as […]
(§6) described previously5. […]

Data set [2] is described as follows: PK s.c. in rats with vitamin D and warfarin-induced VC. Conditions: Sprague-Dawley, rat, plasma, sc, 50 mg/kg, 50 mg/kg s.c., Cardiovascular calcification model. Format: in vivo. The method, then:
Moreover, the systemic exposure of the compound after s.c. administration was assessed in rats with VC (Fig. 4f, Supplementary Table 3).
To study PK in rats presenting with VC, plasma samples were used from a sub-group of the study where calcification was induced with vitamin D and warfarin treatment.
The bioanalytical method for (OEG2)2-IP4 in rat plasma was further optimized, qualified, and applied to the comparative PK study in adenine and high-phosphate diet-induced VC vs. vitamin D-induced VC animals. The LC-MS/MS analyses were carried out using a Dionex Ultimate RSLC ultra-high-pressure liquid chromatography (UHPLC) system (Thermo Fisher Scientific) coupled with a TSQ Quantiva^TM triple quadrupole mass spectrometer. The samples were stored at 5 °C in the autosampler prior to and during the analyses. […] Gradient elution (solvent A, 20 mM ammonium acetate in water (pH 5); solvent B, ACN) was used according to the program reported in Supplementary Table 18. The injection volume was 10 µL. MS/MS parameters (MRM acquisition, cycle time 0.2 s) for (OEG2)2-IP4 are reported in Supplementary Table 19 and the ESI source, working in negative ionization mode, applied the following parameters: static spray voltage 3000 V ion transfer tube and vaporizer temperatures at 400 and 100 °C, respectively; sheath and auxiliary gas (nitrogen) flow rates at 80 and 3 (arbitrary units). For the quantitative determination in rat plasma, product ion m/z 158.9 was selected because it provided the best sensitivity and selectivity. Calibration curve and quality control samples were prepared by adding 2 μL of working solution to 38 μL rat blank K3EDTA plasma (Biochemed, Winchester, VA) and precipitating plasma protein by addition of 120 μL of MeOH including internal standard OEG11-IP5. Samples were vortexed 1 min and centrifuged at (22,000 × g, 4 °C, 10 min). Supernatants (90 μL) were then transferred into a glass vial with insert and injected onto LC-MS/MS system. Both in adenine and high-phosphate diet-induced VC and vitamin D-induced VC rat PK samples were prepared for analysis in an analogous manner as done for spiked samples (assay volume 40 μL). The LLOQ and LOD in rat plasma for (OEG2)2-IP4 were 50 and 10 ng/mL, respectively. The ULOQ and detection was 50,000 ng/mL.

The next data set concerns the target T2, Muscarinic M1 (Homo sapiens, UniProt P11229).
T2 construct: purchased Eurofins Panlabs Discovery Services Taiwan, Ltd
As to the kind of experiment: Off-target 252610. Type of data set: binding. Here is the method:
as §1, §2, §3, §4, §5, §6

Data set [3] has as its target T3, Transporter, Norepinephrine (NET) (Homo sapiens, UniProt P23975).
T3 construct: purchased Eurofins Panlabs Discovery Services Taiwan, Ltd
Put plainly: Off-target 204410. Type of data set: binding. The method, then:
as §1, §2, §3, §4, §5, §6

In data set [4] the target is T4, (Rattus norvegicus, UniProt P43140).
T4 construct: purchased Eurofins Panlabs Discovery Services Taiwan, Ltd
T4 sequence (P43140 whole entry): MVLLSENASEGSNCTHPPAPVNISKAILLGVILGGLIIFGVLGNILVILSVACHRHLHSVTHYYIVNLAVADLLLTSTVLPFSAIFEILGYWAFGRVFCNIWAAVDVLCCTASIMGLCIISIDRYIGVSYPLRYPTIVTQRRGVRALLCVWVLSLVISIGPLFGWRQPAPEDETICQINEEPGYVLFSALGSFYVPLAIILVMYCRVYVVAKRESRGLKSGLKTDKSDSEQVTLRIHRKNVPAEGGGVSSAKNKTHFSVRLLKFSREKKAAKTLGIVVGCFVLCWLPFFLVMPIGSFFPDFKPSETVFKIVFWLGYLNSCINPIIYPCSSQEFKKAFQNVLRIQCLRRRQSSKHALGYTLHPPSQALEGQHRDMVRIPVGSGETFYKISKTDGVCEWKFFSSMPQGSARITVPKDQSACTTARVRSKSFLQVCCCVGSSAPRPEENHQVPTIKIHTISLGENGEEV
Put plainly: Off-target 203100. Format: binding. The method, then:
as §1, §2
(§7) The experiments were conducted by a contract research organization (Eurofins Panlabs Discovery
(§8) Services Taiwan, Ltd.) and details on the respective assays can be retrieved via the catalog number
(§9) provided in Supplementary Table 11 from the company’s webpage
as §4

The next data set addresses Glutamate, NMDA, Glycine (Rattus norvegicus, UniProt P35439). As to the kind of experiment: Off-target 232910. Format: binding. Here is the method:
as §1, §2, §7, §8, §9, §4

Data set [5] deals with Glutamate, NMDA, Polyamine. Put plainly: Off-target 234000. Type of data set: binding, Rat. The conditions noted are these: 10 µM. Here is the method:
as §1, §2, §7, §8, §9, §4

The target of data set [6] is T5, Platelet Activating Factor (PAF) (Homo sapiens, UniProt P25105).
T5 construct: purchased Eurofins Panlabs Discovery Services Taiwan, Ltd
T5 sequence (P25105 whole entry): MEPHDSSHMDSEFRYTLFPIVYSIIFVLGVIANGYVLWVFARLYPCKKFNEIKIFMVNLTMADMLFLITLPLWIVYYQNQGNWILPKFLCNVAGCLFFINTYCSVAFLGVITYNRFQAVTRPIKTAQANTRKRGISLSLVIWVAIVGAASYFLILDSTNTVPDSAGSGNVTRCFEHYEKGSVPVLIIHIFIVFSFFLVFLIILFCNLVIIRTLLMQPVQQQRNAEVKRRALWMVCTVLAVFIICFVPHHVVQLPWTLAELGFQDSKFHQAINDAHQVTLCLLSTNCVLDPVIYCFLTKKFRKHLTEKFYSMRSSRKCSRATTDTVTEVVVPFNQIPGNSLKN
Put plainly: Off-target 265010. Format: binding. The method, then:
as §1, §2, §7, §8, §9, §4

The target in data set [7] is T6, Cholinesterase, Acetyl, ACES (Homo sapiens, UniProt P22303).
T6 construct: purchased Eurofins Panlabs Discovery Services Taiwan, Ltd
T6 sequence (P22303 32-614): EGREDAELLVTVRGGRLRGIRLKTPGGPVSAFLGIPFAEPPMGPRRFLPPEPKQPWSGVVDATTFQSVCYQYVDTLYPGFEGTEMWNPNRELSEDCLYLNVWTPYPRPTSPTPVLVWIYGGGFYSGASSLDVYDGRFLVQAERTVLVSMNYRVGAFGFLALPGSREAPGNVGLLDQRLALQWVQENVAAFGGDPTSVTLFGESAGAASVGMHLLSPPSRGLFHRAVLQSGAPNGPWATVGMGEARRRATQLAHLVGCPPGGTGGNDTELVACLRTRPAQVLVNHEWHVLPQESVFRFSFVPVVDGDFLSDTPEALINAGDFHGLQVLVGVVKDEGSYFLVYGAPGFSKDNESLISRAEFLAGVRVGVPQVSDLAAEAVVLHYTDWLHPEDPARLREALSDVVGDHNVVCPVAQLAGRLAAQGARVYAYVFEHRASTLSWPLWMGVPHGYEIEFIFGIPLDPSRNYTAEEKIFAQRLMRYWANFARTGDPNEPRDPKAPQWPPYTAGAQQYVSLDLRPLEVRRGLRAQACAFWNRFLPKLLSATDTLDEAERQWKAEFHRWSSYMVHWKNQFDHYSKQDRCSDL
As to the kind of experiment: Off-target 104010. Type of data set: biochemical. Here is the method: as §1, §2, §7, §8, §9, §4

For data set [8], the system named is Calcium Channel L-Type, Benzothiazepine. Put plainly: Off-target 214510. Type of data set: binding, Rat. Conditions: 10 µM. The method, then:
as §1, §2, §3, §4, §5, §6

A further data set deals with T7, Cannabinoid CB1 (Homo sapiens, UniProt P21554).
T7 construct: purchased Eurofins Panlabs Discovery Services Taiwan, Ltd
T7 sequence (P21554 whole entry): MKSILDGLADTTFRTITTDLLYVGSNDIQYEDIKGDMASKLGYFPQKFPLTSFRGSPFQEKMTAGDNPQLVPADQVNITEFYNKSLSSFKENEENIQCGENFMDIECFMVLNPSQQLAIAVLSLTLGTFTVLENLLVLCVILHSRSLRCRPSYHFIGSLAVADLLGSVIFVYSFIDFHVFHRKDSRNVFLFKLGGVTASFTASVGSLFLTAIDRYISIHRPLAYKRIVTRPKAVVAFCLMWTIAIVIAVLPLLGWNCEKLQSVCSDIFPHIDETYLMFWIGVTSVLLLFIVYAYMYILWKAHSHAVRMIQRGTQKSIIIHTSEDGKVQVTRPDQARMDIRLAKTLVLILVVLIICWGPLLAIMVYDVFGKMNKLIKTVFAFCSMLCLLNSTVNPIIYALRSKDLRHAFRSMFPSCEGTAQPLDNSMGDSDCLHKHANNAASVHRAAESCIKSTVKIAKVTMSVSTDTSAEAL
Put plainly: Off-target 217030. Format: binding. The method, then:
as §1, §2, §3, §4, §5, §6

Another data set relates to Transporter, Adenosine. As to the kind of experiment: Off-target 202000. Format: binding, Guinea pig. Conditions: 10 µM. The method, then:
as §1, §2, §7, §8, §9, §4

The target of a further data set is T8, Adrenergic β1 (Homo sapiens, UniProt P08588).
T8 construct: purchased Eurofins Panlabs Discovery Services Taiwan, Ltd
T8 sequence (P08588 whole entry): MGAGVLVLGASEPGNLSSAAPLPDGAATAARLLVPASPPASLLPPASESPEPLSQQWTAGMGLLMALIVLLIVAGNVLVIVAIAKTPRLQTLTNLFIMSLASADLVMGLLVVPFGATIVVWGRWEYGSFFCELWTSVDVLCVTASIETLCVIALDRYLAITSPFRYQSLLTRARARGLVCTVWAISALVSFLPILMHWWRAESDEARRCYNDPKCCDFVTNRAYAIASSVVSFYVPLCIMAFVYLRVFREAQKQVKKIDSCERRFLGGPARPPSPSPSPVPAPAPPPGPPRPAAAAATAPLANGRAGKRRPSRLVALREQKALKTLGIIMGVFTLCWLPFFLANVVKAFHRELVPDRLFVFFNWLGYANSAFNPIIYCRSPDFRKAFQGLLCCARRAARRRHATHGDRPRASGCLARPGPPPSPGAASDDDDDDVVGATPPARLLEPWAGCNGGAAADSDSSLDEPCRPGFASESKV
As to the kind of experiment: Off-target 204010. Type of data set: binding. Here is the method: as §1, §2, §3, §4, §5, §6

The target of data set [9] is T9, Protein Tyrosine Kinase, LCK (Homo sapiens, UniProt P06239).
T9 construct: purchased Eurofins Panlabs Discovery Services Taiwan, Ltd
T9 sequence (P06239 whole entry): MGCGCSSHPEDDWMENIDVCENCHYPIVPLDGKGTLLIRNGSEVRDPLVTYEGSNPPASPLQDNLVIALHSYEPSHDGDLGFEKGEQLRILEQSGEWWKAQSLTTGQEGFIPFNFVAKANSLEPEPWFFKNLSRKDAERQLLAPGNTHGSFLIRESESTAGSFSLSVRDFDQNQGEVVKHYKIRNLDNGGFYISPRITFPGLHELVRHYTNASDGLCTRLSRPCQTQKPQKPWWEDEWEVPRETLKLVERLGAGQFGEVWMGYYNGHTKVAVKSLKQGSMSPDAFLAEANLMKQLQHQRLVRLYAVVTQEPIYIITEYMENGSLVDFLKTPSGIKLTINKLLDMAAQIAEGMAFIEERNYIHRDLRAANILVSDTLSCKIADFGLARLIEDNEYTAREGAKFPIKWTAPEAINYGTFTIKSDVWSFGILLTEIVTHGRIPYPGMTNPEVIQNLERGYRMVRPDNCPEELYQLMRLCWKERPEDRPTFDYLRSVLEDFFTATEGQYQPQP
Put plainly: Off-target 176020. Format: biochemical. Here is the method:
as §1, §2, §7, §8, §9, §4

Another data set addresses T10, Opiate δ1 (OP1, DOP) (Homo sapiens, UniProt P41143).
T10 construct: purchased Eurofins Panlabs Discovery Services Taiwan, Ltd
Put plainly: Off-target 260130. Format: binding. Here is the method: as §1, §2, §7, §8, §9, §4

Data set [10] can be described thus: Compound stress test in D2O at 37 °C (NMR). Format: physicochemical. Conditions: up to 6 weeks. The method, then: For the compound stress test, 20.25 mg (OEG2)2-IP4 in 700 µL D2O was incubated at 37 °C and stability was monitored by ^1H-NMR and ^31P-NMR spectroscopies for up to 6 weeks.
Monitoring the stability of (OEG2)2-IP4 in aqueous solution at 37 °C for up to 6 weeks by 1H-
Monitoring the stability of (OEG2)2-IP4 in aqueous solution at 37 °C for up to 6 weeks by 31P- […]

T10 sequence (P41143 whole entry): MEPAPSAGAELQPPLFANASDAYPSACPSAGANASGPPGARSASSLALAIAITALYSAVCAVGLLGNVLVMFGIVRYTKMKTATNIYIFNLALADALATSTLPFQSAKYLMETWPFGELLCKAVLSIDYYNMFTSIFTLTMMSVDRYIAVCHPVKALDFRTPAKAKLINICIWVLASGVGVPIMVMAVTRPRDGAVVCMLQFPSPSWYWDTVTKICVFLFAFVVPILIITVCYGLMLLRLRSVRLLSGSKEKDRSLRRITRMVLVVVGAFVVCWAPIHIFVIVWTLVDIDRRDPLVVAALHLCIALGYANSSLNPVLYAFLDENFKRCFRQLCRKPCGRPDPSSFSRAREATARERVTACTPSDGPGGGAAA
Sequence of Glutamate, NMDA, Glycine (P35439 394-800 limits assumed): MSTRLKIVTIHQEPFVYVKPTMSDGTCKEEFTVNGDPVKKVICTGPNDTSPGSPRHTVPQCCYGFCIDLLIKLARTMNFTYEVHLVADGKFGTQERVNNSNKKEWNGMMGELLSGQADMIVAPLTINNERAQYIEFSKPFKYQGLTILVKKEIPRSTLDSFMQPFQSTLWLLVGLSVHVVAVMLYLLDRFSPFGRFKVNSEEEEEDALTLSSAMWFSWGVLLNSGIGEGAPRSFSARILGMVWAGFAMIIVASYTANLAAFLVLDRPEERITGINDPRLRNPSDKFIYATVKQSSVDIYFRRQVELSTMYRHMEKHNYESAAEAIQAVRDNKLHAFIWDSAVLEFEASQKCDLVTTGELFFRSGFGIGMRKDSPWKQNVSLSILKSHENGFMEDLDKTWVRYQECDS
T1 sequence (P08311 21-255): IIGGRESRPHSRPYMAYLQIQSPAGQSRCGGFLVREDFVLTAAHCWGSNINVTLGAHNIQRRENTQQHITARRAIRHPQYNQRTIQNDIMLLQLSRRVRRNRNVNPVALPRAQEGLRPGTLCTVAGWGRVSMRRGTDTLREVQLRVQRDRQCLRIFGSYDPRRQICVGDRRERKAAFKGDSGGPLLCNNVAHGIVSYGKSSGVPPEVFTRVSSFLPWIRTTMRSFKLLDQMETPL
T2 sequence (P11229 whole entry): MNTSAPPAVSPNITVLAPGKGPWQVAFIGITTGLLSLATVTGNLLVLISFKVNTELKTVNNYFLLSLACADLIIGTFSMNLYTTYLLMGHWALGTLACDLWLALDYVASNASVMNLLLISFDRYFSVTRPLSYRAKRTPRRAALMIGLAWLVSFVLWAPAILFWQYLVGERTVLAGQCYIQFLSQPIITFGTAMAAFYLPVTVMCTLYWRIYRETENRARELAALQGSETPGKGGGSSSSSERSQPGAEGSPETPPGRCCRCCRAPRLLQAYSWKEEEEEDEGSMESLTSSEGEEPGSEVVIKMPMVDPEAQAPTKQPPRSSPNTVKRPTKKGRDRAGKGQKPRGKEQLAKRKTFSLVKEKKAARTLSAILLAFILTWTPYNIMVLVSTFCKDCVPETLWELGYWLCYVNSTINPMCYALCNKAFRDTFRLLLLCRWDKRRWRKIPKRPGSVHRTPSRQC
T3 sequence (P23975 whole entry): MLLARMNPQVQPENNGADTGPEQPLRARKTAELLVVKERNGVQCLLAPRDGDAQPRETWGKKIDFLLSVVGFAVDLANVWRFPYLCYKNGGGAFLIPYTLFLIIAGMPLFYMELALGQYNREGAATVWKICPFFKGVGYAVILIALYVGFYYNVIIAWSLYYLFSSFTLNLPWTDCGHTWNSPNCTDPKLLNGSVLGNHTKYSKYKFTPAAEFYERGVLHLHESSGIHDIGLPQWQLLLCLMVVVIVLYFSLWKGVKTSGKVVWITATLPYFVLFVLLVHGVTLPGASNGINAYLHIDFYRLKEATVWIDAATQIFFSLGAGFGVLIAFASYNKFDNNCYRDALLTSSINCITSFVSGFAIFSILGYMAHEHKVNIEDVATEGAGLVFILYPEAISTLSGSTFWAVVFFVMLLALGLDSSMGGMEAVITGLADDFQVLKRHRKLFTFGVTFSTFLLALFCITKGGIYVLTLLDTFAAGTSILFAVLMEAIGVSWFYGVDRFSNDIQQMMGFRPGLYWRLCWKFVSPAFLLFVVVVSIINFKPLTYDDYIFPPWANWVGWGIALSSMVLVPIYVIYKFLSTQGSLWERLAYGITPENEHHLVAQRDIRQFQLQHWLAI

Take `COCCOCCO[C@@H]1[C@@H](OP(=O)(O)O)[C@H](OCCOCCOC)[C@@H](OP(=O)(O)O)[C@@H](OP(=O)(O)O)[C@H]1OP(=O)(O)O` [(OEG2)2-IP4, 4,6-Di-O-(methoxy-diethyleneglycol)-myo-inositol-1,2,3,5-tetrakis(phosphate)]: the inhibition at 10 µM in data set [1] was 23%; on Muscarinic M1 it was -6%; in [3], 20%; in data set [4], 1%; against Glutamate, NMDA, Glycine, 6%; in data set [6] it was -7%. Moreover, the inhibition at 10 µM in data set [7] was 5%; at Cannabinoid CB1, -7%; on Adrenergic β1, 2%; in data set [9], 4%; against Opiate δ1 (OP1, DOP), -2%. For the same compound, in [2], the AUC(0-inf) was 152 µM·h. In addition, in data set [2], the CL/F was found to be 7 ± 2 mL/min/kg. For the same compound, the Cmax in data set [2] stood at 34 ± 8 µM. In addition, the half-life in data set [2] was determined as 3.73 ± 0.733 h. In data set [2] (read-out: AUC0-1440 (converted)), the AUC(0-t) is 151 µM·h. In data set [2] (read-out: MRT0-1440 (converted)), the MRT last is 3.5 h. Also, the “% Inhibition” value in data set [5] is recorded as 17%; in [8], -7%; in the data set with Transporter, Adenosine, -14%. Also, the “stability in aqueous solution by 1H- and 31P-NMR” value in [10] is “No compound degradation was evident”.

Usually inhibition stands for the drop in the measured response relative to a control, in per cent. The AUC(0-inf) is total exposure, with the tail of the curve extrapolated. By CL/F is commonly meant clearance divided by bioavailability, as obtained after extravascular dosing. In general, Cmax refers to the maximum level reached in the sampled fluid or tissue. Usually half-life stands for how long it takes for the measured level to halve. By % Inhibition is commonly meant the drop in the measured response relative to a control, in per cent.
